Laboratory results from patent US7671054B1, “Reverse-turn mimetics and method relating thereto” (Choongwae Pharma Corporation, priority 2001, dated 2010).
“Also recorded” adds a separate entry of the source.

Assays:
[1] = test system: TCF4/β-catenin transcription (TOPFlash) in SW480 cells; assay: Reporter gene assay (TOPFlash luciferase); type: cell-based; conditions: Homo sapiens, SW480, Table 10; prodrug compounds, reporter gene assay TopF; read-out: RGA, TopF IC50
Outline: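 SW480 cells transiently co-transfected with TOPFlash and pRL-null (4:1 µg) using Superfect, then reseeded at 3×10^4 cells/well and incubated overnight at 37 °C. Compound treatment lasted 24 h before luciferase read-out.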

[2] = test system: survivin promoter in SW480 cells; assay: Survivin luciferase reporter in SW480 cells; type: cell-based; conditions: for IC50: Homo sapiens, SW480, Table 10, prodrug compounds, reporter gene assay Survivin, read-out: RGA, Survivin IC50
HCT116 cells [3] = assay: MTS cytotoxicity test; type: cell-based; conditions: Homo sapiens, HCT-116, Table 10, prodrug compounds, 24 hours treatment, read-out: MTS, HCT116 (uM) LD50
Experimental: (§1) SW480 or HCT116 cells were placed into 96 well microplate (10^4cells/well) and incubated for 24 hours at 37° C. The cells were treated with TCF4 compound at various concentrations for 24 hours. 20 μl of MTS solution (Promega) was added into each well and incubated for 2 hours at 37° C. Cell viability was measured by reading the absorbance at 490 nm using microplate reader (Molecular Device) and cytotoxicity of a compound at each concentration was calculated.

SW480 cells [4] = assay: MTS cytotoxicity test; type: cell-based; conditions: Homo sapiens, Table 10, prodrug compounds, 24 hours treatment, read-out: MTS, SW480 (uM) LD50
Experimental: as §1

HCT116 cells [5] = assay: Growth inhibition assay (MTS); type: cell-based; conditions: Homo sapiens, HCT-116; Table 10; prodrug compounds, HCT116 cells, growth inhibition; read-out: MTS, HCT116 (uM) GI50
Outline: (§2)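 Cells seeded at 10^4 per well, grown 24 h at 37° C, then exposed to compound at various concentrations for 48 hours. MTS added for 2 h; absorbance at 490 nm gave viability, with cytotoxicity calculated per concentration against pre-treatment reading.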

SW480 cells [6] = assay: Growth inhibition assay (MTS); type: cell-based; conditions: Homo sapiens; Table 10; prodrug compounds, SW480 cells, growth inhibition; read-out: MTS, SW480 (uM) GI50
Outline: as §2

[7] = test system: S.D. rats with Mycobacterium butyricum-induced polyarthritis; assay: Rat adjuvant-induced arthritis model; type: in vivo
Experimental: To induce polyarthritis, six-week-old male S.D. rats received intradermal injection (base of tail) of 100 μl of Mycobacterium butyricum (Cat. No. 264010, Difco) in mineral oil (5 mg/ml) on Day 0. The test compound, Compound F, was given once daily at Day 1, 2, 3, 4, 5, 8, 10, 12 and 14 by oral gavage. […] The paw thickness was measured with digital caliper (Mitutoyo, Japan) and the arthritic index was accessed (FIG. 21).

[8] = test system: IL-2 production in Jurkat cells; assay: PMA/ionomycin-induced IL-2 production in Jurkat cells; type: cell-based; conditions: Homo sapiens, 6 hr
Experimental: PMA/lonomycin-induced IL-2 production in Jurkat cells: Jurkat cells were seeded into 96 well tissue culture plates (1×10^5 cells/well) and treated with the test compound, Compound F, and further incubated for 60 min at 37° C. in a CO2 incubator. Stimulant (10 ng/ml PMA and 1 μg/ml ionomycin) was added into each well, and the cells were further incubated for 6 hr at 37° C. in a CO2 incubator. Supernatant was collected and concentration of IL-2 was determined with the ELISA kit (OptEIA, BD).

[9] = test system: TNF-α production in THP-1 cells; assay: LPS-induced TNF-α production in THP-1 cells; type: cell-based; conditions: Homo sapiens, LPS 100 ng/ml, 6 hr
Experimental: LPS-induced TNF-α production in THP-1 cells: THP-1 cells were incubated with 200 nM PMA for 24 hr. Cells were harvested with trypsin and seeded into 96 well tissue culture plates (2×10^4 cells/well). The test compound, Compound F, was added to each well followed by LPS (100 ng/ml). The cells were further incubated for 6 hr at 37° C. in a CO2 incubator. Media was collected and concentration of TNF-α was determined with the ELISA kit (OptEIA, BD).

[10] = test system: NF-κB in stably transfected A549 cells; assay: NF-κB reporter assay; type: cell-based; conditions: PMA 10 ng/ml, 6 hr
Experimental: Cells were transferred into each well of 96 well white opaque plates (1×10^4 cells/well/50 μl) and incubated 24 hr at 37° C. in 5% CO2 incubator. The test compound, Compound F, was added to each well, and 1 hr later, phorbol 12-myristate 13-acetate (PMA) (10 ng/ml) was added into each well. Plates were incubated further for 6 hr at 37° C. in 5% CO2 incubator. One hundred microliter of Dual-glo FireFly substrate (Promega) was added and incubated for 10 min. Luminescence of each well was measured with a luminometer (Victor II) (FIG. 23).

[11] = test system: TNF-α in serum of ICR mice; assay: Serum TNF-α induced by intraperitoneal LPS; type: in vivo, mouse; conditions: perorally 60 min prior to LPS, blood 90 min after
Experimental: Male young ICR mice received intraperitoneal injection of LPS (E. coli O111:B4). Compound F was administered perorally 60 min prior to LPS challenge and blood was drawn 90 min subsequent to challenge. Vehicle control mice received the pharmacological carrier used for Compound F only. Concentration of TNF-α in the serum was determined by ELISA method. […] For reference, dexamethasone (Dex, Sigma) was treated (15 mg/kg, oral).

[12] = test system: min mice (polyp formed in small intestine and colon); assay: Min mouse model; type: in vivo; conditions: about 300 mpk
Experimental: Selected compounds of the present invention (Compound B and Compound C) were evaluated in the min mouse model to evaluate their efficacy as anti-cancer agents.
The min mouse model is a widely used model to test for this type of efficacy. The numbers of polyp formed in small intestine and colon of these mice after various treatments were measured (Table 7).

SW480 cells [13] = assay: Soft agar assay, Compound A with 5-FU; type: cell-based; conditions: for LD50, soft agar assay: 8 days
Experimental: Compound A solution and upper layer solution containing agarose were mixed, and SW480 cells were added and solidified. Plates were incubated 37° C. at CO2 incubator for 8 days after solidification at room temperature for 30 min, and colonies were counted under microscope (FIG. 19).

HUVEC = assay: Tube formation assay (In Vitro Angiogenesis Assay Kit); type: cell-based; conditions: 0.1-10 μM, 12 h
Experimental: Tube formation assay was performed using an In Vitro Angiogenesis Assay Kit (Chemicon International, Inc., Temecula, Calif., USA). Briefly, solid gels were prepared according to the manufacturer's manual on a 96-well tissue culture plate. HUVEC (1×10^5 cells/ml) in HuMedia EG-2 medium containing […] were seeded 100 μl per well onto the surface of the solid gel, ECMatrix™. The cells were incubated with vehicle control, Compound E at 0.1 μM, 0.3 μm, 1.0 μM, 3 μM, and 10 μM, or Fumagilin at 10 μM for 12 h at 37° C. in a CO2 incubator. Tube formation was observed under an inverted light microscope at ×100 magnification. Microscopic fields were photographed with a digital camera.

Row | Compound | IC50 [1] [µM] | IC50 [2] [µM] | IC50 (HCT116 cells [3]) [µM] | IC50 (SW480 cells [4]) [µM] | GI50 (HCT116 cells [5]) [µM] | GI50 (SW480 cells [6]) [µM] | other results
1 | CN1CC(=O)N2[C@@H](Cc3ccc(OP(=O)(O)O)cc3)C(=O)N(Cc3ccc4ncsc4c3)C[C@@H]2N1C(=O)NCc1ccccc1 [Compound 11] | 10.3 | 6.7 | > 50 | > 50 | 6.3 | 6.5 | –
2 | CN1CC(=O)N2[C@@H](Cc3ccc(OP(=O)(O)O)cc3)C(=O)N(Cc3cccc4ccccc34)C[C@@H]2N1C(=O)NCc1ccccc1 [Compound 2] | 3.5 | 5.7 | 23.2 | 8.2 | 6.6 | 3.1 | –
3 | CC(C)C[C@H]1C(=O)N(CCC(c2ccccc2)c2ccccc2)C[C@H]2N1C(=O)CN(C)N2C(=O)NCc1ccccc1 [Compound F] | – | – | – | – | – | – | increase of paw thickness ([7]; oral 30 mg/kg): significantly ameliorated the increase of paw thickness; increase of paw thickness ([7]; oral 100 mg/kg): significantly ameliorated the increase of paw thickness; IC50 [8]: 8.48 µM; IC50 [9]: 7.08 µM; NF-κB reporter activity [10]: effective in inhibiting NF-κB transcription; LPS-induced TNF-α in serum [11]: reduces LPS-induced TNF-α production in serum in a dose-dependent manner
4 | C=CCN1CC(=O)N2[C@@H](Cc3ccc(OP(=O)(O)O)cc3)C(=O)N(Cc3ccc(F)cc3F)C[C@@H]2N1C(=O)NCc1ccccc1 [Compound 8] | 1.4 | 0.9 | 23.2 | 21.6 | 1.9 | 2.1 | –
5 | CN1CC(=O)N2[C@@H](Cc3ccc(O)cc3)C(=O)N(Cc3cccc4cccnc34)C[C@@H]2N1C(=O)NCc1ccccc1 [Compound B] | – | – | – | – | – | – | number of polyp compared to vehicle control mice [12]: reduce the number of polyp in min mice
6 | CN(C)c1cc(CN2C[C@H]3N(C(=O)CN(C)N3C(=O)NCc3ccccc3)[C@@H](Cc3ccc(OP(=O)(O)O)cc3)C2=O)ccc1Cl [Compound 13] | 1.8 | 0.9 | 20 | 21.1 | 1.7 | 2.3 | –
7 | CN1CC(=O)N2[C@@H](Cc3ccc(O)cc3)C(=O)N(Cc3cccc4ccccc34)C[C@@H]2N1C(=O)NCc1ccccc1 [Compound A] | – | – | – | – | – | – | synergy with 5-FU in soft agar assay (SW480 cells [13]): synergism of anti-cancer activity; also recorded: synergy; LD50, soft agar assay (SW480 cells [13]; in combination with 0 μM 5-FU): 76 µM; LD50, soft agar assay (SW480 cells [13]; in combination with 1 μM 5-FU): 30 µM; LD50, soft agar assay (SW480 cells [13]; in combination with 4 μM 5-FU): 2 µM; survivin luciferase reporter activity ([2]; SW480 cells, various concentrations): inhibit expression of survivin; also recorded: inhibit the activity of a survivin luciferase reporter
8 | CN(C)c1cc(F)c(F)cc1CN1C[C@H]2N(C(=O)CN(C)N2C(=O)NCc2ccccc2)[C@@H](Cc2ccc(OP(=O)(O)O)cc2)C1=O [Compound 14] | 1.7 | 1.2 | 16 | 21.1 | 2.1 | 2.3 | –
9 | C=CCN1CC(=O)N2[C@@H](Cc3ccc(O)cc3)C(=O)N(Cc3ccccc3)C[C@@H]2N1C(=O)NCc1ccccc1 [Compound E] | – | – | – | – | – | – | tube formation (HUVEC): inhibited tube formation in a dose-dependent manner
10 | CN1CC(=O)N2[C@@H](Cc3ccc(OP(=O)(O)O)cc3)C(=O)N(Cc3cccc4cnn(C)c34)C[C@@H]2N1C(=O)NCc1ccccc1 [Compound 5] | 26 | – | > 50 | 34 | 16.5 | 5.2 | –
11 | CCCN1CC(=O)N2[C@@H](Cc3ccc(OP(=O)(O)O)cc3)C(=O)N(Cc3cccc4cccnc34)C[C@@H]2N1C(=O)NCc1ccccc1 [Compound 10] | 2.8 | 1.7 | 7 | 0.4 | 0.8 | 0.9 | –
12 | C=CCN1CC(=O)N2[C@@H](Cc3ccc(OP(=O)(O)O)cc3)C(=O)N(Cc3cccc4cccnc34)C[C@@H]2N1C(=O)NCc1ccccc1 [Compound 6] | 0.8 | 0.1 | 6.4 | 9.2 | 0.4 | 0.5 | –
13 | C=CCN1CC(=O)N2[C@@H](Cc3ccc(OP(=O)(O)O)cc3)C(=O)N(Cc3cccc4c3N(C)CCO4)C[C@@H]2N1C(=O)NCc1ccccc1 [Compound 12] | 1 | 0.7 | 19.3 | > 50 | 1.2 | 1 | –
14 | CN1CC(=O)N2[C@@H](Cc3ccc(OP(=O)(O)O)cc3)C(=O)N(Cc3cccc4cccnc34)C[C@@H]2N1C(=O)NCc1ccccc1 [Compound 9] | 9.6 | 6 | > 50 | > 50 | 14.7 | 7.6 | –
15 | CN1CC(=O)N2[C@@H](Cc3ccc(OP(=O)(O)O)cc3)C(=O)N(Cc3ccc(F)cc3F)C[C@@H]2N1C(=O)NCc1ccccc1 [Compound 4] | 7.3 | 6.5 | 49.3 | > 50 | 11.4 | 6.9 | –
16 | CN(C)c1cc(F)ccc1CN1C[C@H]2N(C(=O)CN(C)N2C(=O)NCc2ccccc2)[C@@H](Cc2ccc(OP(=O)(O)O)cc2)C1=O [Compound 3] | 11.5 | – | 41.9 | > 50 | 3.1 | 3 | –
17 | C=CCN1CC(=O)N2[C@@H](Cc3ccc(OP(=O)(O)O)cc3)C(=O)N(Cc3ccc(Cl)c4cccnc34)C[C@@H]2N1C(=O)NCc1ccccc1 [Compound 7] | 2.3 | 1 | 12 | 12.9 | 1.8 | 2.2 | –
